Source: patent US20020103261A1, “Compositions for injection or intravenous administration for the treatment of internal infection or inflammation in humans and animals” (priority 2000, published 2002)

Legend:
Solubility in lipids = type: physicochemical
[1] = inactive metabolites after enzymatic degradation; cited from earlier work

## Cc1ccc(C(C)C)cc1O [isopropyl-o-cresol, 5-isopropyl-2-methylphenol]
Solubility in lipids
  solubility in lipids: soluble in lipids
[1]
  metabolites excreted in the urine: approx. 90%
  metabolites expired from the lungs in the form of CO2: 10%

## Cc1ccc(C(C)C)c(O)c1 [isopropyl-cresol, 5-methyl-2[1-methylethyl]phenol]
[1]
  metabolites expired from the lungs in the form of CO2: 10%
